Values quoted from earlier work, collected in patent publication US20060106545A1, “Methods of clustering proteins” (Jubilant Biosys Ltd., priority 2004, published 2006).

How the values were obtained:
PKB (Protein kinase B) = PKB (Protein kinase B) (Homo sapiens, UniProt P31749)
[1] = test system: MKK (Mitogen activated protein kinase kinase)
CK2 (Casein kinase 2) = CK2 (Casein kinase 2) (Homo sapiens, UniProt P68400)
[2] = target: MAPK2 (Mitogen-activated protein kinase 2) (Homo sapiens, UniProt P28482)
MAPK2 (Mitogen-activated protein kinase 2), sequence (P28482 whole entry): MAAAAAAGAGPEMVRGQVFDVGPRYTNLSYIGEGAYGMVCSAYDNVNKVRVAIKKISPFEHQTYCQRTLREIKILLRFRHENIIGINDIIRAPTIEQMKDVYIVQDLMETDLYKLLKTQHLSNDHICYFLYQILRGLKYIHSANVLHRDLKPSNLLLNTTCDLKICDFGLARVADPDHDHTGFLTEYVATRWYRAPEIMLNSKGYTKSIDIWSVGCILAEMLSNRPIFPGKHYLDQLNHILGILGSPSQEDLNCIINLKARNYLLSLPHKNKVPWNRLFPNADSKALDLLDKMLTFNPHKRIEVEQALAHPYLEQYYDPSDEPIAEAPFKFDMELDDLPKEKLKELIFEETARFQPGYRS

[3] = target: T1, SAPK3 (Stress-activated protein kinase 3) (Homo sapiens, UniProt P53778)
T1 sequence (P53778 1-367): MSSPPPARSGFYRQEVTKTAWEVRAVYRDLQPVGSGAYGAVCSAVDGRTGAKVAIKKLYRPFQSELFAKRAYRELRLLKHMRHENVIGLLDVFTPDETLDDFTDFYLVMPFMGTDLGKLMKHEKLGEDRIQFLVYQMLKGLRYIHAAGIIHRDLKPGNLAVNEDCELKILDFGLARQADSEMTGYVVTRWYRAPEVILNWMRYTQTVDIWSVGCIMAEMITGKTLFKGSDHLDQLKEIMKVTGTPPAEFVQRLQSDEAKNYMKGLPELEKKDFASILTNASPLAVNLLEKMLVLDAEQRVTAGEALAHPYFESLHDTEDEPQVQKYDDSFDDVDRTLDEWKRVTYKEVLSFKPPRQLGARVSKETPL

SAPK2 = settings: kinase SAPK2

CK2 (Casein kinase 2), sequence (P68400 whole entry): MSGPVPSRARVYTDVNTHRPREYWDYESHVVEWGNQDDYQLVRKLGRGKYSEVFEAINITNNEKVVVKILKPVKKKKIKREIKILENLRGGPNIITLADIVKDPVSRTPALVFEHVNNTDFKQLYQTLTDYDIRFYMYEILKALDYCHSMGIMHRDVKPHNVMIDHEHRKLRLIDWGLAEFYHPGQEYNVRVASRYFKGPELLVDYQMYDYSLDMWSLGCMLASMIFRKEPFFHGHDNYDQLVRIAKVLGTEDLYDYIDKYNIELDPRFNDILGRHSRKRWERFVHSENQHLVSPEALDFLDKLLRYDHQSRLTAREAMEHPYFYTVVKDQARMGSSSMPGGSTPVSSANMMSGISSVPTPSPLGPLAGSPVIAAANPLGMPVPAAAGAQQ
PKB (Protein kinase B), sequence (P31749 whole entry): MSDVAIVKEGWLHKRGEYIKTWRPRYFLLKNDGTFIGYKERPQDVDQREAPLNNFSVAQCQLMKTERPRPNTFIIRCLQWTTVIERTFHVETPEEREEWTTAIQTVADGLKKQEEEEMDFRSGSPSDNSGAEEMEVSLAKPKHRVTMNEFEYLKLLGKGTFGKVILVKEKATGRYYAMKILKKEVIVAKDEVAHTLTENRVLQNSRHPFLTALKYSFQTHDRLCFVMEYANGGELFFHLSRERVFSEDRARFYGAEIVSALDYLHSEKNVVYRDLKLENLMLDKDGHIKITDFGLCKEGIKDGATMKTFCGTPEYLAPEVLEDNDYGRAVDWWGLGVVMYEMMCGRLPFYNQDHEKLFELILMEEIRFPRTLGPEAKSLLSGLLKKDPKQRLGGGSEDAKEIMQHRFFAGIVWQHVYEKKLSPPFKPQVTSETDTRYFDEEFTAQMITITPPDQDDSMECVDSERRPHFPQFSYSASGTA

Row | Structure (SMILES) | % of Expression Bain et al., (2002) (PKB (Protein kinase B)) | % of Expression Bain et al. [1] [%] | % of Expression Bain et al., (2002) (CK2 (Casein kinase 2)) [%] | % of Expression Bain et al., (2002) [2] | percentage of expression, Bain et al., (2003) [3] | % of Expression Bain et al. (SAPK2) [%]
1 | O=C1Cc2c([nH]c3ccc(Br)cc23)-c2ccccc2N1 [Kenpaullone] | 40-60% | >80 | >80 | 60-80% | – | –
2 | CC(C)[C@H](CO)Nc1nc(Nc2cccc(Cl)c2)c2ncn(C(C)C)c2n1 [Purvalanol] | – | – | – | – | more than 80% | >80
